pIC50: −log10 of the molar value.
Assays:
WRN [1] = molecular target: T1, WRN (Homo sapiens, UniProt Q14191); test: WRN ATPase activity assay (ADP-Glo); assay type: biochemical; conditions: IC50, 1-hr pre-incubation with enzyme; geometric means of at least 2 independent replicates
T1 construct: A His-tagged construct of WRN (AA S2-S1235) was produced and used for the ATPase assay; His; made in house; host or cells: Sf9 insect cells (baculovirus)
Description: Compounds of the Examples were tested for WRN ATPase activity. WRN ATPase activity catalyzes ATP hydrolysis to produce ADP and phosphate. DNA encoding the target protein, 6×HIS-TEV-WRN-517-945, was produced, cloned and transfected as detailed in Example D. The amount of ADP produced was measured using ADP-Glo™ Kinase Assay kit from Promega Corporation in a Greiner white regular volume 384 wells assay plate (Greiner #781075). Data was normalized to a standard curve generated using various ADP concentrations and the corresponding luminescent signal intensities at each concentration. The assay conditions were optimized for enzyme concentration (WRN), substrate concentrations (ATP & dsDNA), and the linearity of the ATPase reaction, in the following assay buffer: 50 mM Tris-HCl, pH-7.5, 2 mM MgCl2, 50 mM NaCl, 1 mM EGTA, 0.01% P-20, 0.05% BSA, and 2 mM DTT prepared with nuclease free water.
A serial dilution (1:3 scheme) of the compounds were prepared in neat DMSO, with 100 nL of the compounds dispensed in the 384 wells assay plate. An 1-hr pre-incubation of the compounds with enzyme was included. A His-tagged construct of WRN (AA S2-S1235) was produced and used for the ATPase assay. Maximum inhibition control wells were set up with the addition of only assay buffer, and no inhibition control wells were set up with neat DMSO without test compounds. The reaction was initiated by addition of 5 μL substrate mix (200 μM ultrapure ATP, and 50 nM dsDNA prepared in assay buffer) and incubated at 25° C. for 35 min. A forked dsDNA oligomer substrate was prepared by annealing equal amounts of oligo GPat-1 ([BHQ2][…]) and oligo GPat-2 ([…][TAM]) and was used as dsDNA substrate for WRN ATPase assay. A typical ATPase reaction consists of 25 nM forked dsDNA, 100 μM ATP, and 1 nM WRN prepared in assay buffer. The WRN ATPase reaction was stopped by the addition of 5 μL of ADP-Glo Reagent from ADP-Glo™ Kinase Assay kit and incubated for 40 min to deplete the unreacted ATP. Afterwards, 5 μL of Kinase Detection Reagent from the ADP-Glo™ Kinase Assay kit was added and incubated for 1 hr for the development of luminescence signal.
Luminesce signals were measured on BMG PHERAstar FSX using luminescence protocol. Data analysis was carried out using Genedata software following % of control normalization. Fitting parameters include dose response IC50, Hill slope (n), maximum inhibition (S∞), and minimum inhibition (S0). The reported IC50 values for compounds in this invention are the geometric means of at least 2 independent replicates.

WRN [2] = molecular target: T1, WRN; test: WRN Helicase activity assay (fluorescence DNA unwinding); assay type: biochemical; conditions: IC50, 1-hr pre-incubation with enzyme; geometric means of at least 2 independent replicates
Description: Compounds of the examples were tested for WRN helicase activity. DNA encoding the target protein, 6×HIS-TEV-WRN-517-945, was produced, cloned and transfected as detailed in Example D. To determine the inhibitory properties of the compounds, a 384 wells plate-based Helicase assay was set up to measure the extent of DNA unwinding (Helicase) activity of WRN. The WRN Helicase assay was designed to measure increase in fluorescence signal using a fluorescence based, donor-quencher paired forked dsDNA oligomer substrate (custom synthesis from Sigma-Aldrich) prepared by annealing equal amounts of oligo GPat-1 ([BHQ2][…]) and oligo GPat-2 ([…][TAM]). Continuous measurement of fluorescent signal was used to optimize the buffer conditions, concentration of enzyme (WRN), concentration of substrates (ATP & dsDNA), and the linearity of the Helicase reaction. All solutions were prepared in the following assay buffer: 50 mM Tris-HCl, pH-7.5, 2 mM MgCl2, 50 mM NaCl, 1 mM EGTA, 0.01% P-20, 0.05% BSA, and 2 mM DTT prepared with nuclease free water.
A serial dilution (1:3 scheme) of the compounds was prepared in neat DMSO and 100 nL of the compounds was dispensed in the Greiner black low volume (Greiner #784076) 384 wells assay plate. An 1-hr pre-incubation of the compounds with enzyme was included. A His-tagged construct of WRN (AA S2-S1235) was produced and used for the ATPase assay. Maximum inhibition control wells were set up with the addition of only assay buffer, and no inhibition control wells were set up with neat DMSO without test compounds. The reaction was initiated by addition of 5 μL substrate mix (200 μM ultrapure ATP, and 50 nM dsDNA prepared in assay buffer) and incubated at 25° C. for 35 min. A typical Helicase reaction consists of 25 nM forked dsDNA, 100 μM ATP, and 1 nM WRN prepared in assay buffer. The WRN Helicase reaction was quenched by the addition of 5 μL ‘STOP’ solution containing 100 mM EDTA (final EDTA concentration 33.33 mM) prepared in assay buffer. The plates were read on BMG PHERAstar FSX using 540/590 module to measure an increase of fluorescence. Data analysis was carried out using the Genedata software following % of control normalization. Fitting parameters include dose response IC50, Hill slope (n), maximum inhibition (S∞), and minimum inhibition (S0). The reported IC50 values for compounds in this invention are the geometric means of at least 2 independent replicates.

WRN helicase [3] = molecular target: T2, WRN helicase (Homo sapiens, UniProt Q14191); test: ATPase assay on WRN helicase (ADP-Glo) with varied preincubation times; assay type: biochemical
T2 construct: His-tagged WRN construct used for biochemical characterization (aa S2-S1235); His; made in house; host or cells: Sf9 insect cells (baculovirus)
Description: An ATPase assay on WRN helicase was performed using ADP-Glo and IC50 values were determined by varying the compound of Example 1 preincubation times (FIG. 1). […] In FIG. 1, 0 hrs is represented by bottom dotted line; 1 hour is represented by the broken line with two bullets; 2 hrs is represented by solid line; and 4 hrs is represented by top dashed line.

WRN Cys727Ala = molecular target: T3, WRN Cys727Ala (Homo sapiens, UniProt Q14191, C727A); test: ATPase assay on WRN Cys727Ala mutant, without preincubation; assay type: biochemical
T3 construct: Point mutations were made in the His-tagged WRN construct used for biochemical characterization (aa S2-S1235); His; made in house
Description: (§1) Point mutations were made in the His-tagged WRN construct used for biochemical characterization (aa S2-S1235). Cysteine 580 (Walker A motif), 727 (linker), 864 (Domain 2 Å) and 1041 (RQC domain) were each mutated to both Serine and Alanine using site directed mutagenesis, for a total of eight mutants. Purified proteins were assayed in both helicase and ATPase assays. Cys580 mutation to either Ser or Ala abolished all activity, consistent with Walker A motif cysteine function. Cys864 (D2) mutation to alanine and Cys1041 (RQC domain) had no significant impact on helicase or ATPase activity. Cys727 abolished helicase activity (Table 6), whether it was mutated to Ala or Ser. ATPase activity for Cys727 mutants was reduced but not abolished (Table 7). Table 6 is the panel of the nine variant WRN helicase proteins that were screen using a flourscence-based DNA unwinding assay with an increase in flourscence intensity indicating DNA unwinding. Table 7 is the panel of the nine variant WRN helicase proteins that were screened using ADP-Glo assay to measure DNA stimulated ATPase activity, with an increase in luminescence indicating ATP hydrolysis.
(§2) From FIG. 2, the top line represented WT. […] The mutant experiments were performed without preincubation.

WRN Cys727Ser = molecular target: T4, WRN Cys727Ser (Homo sapiens, UniProt Q14191, C727S); test: ATPase assay on WRN Cys727Ser mutant, without preincubation; assay type: biochemical
T4 construct: Point mutations were made in the His-tagged WRN construct used for biochemical characterization (aa S2-S1235); His; made in house
Description: as §1, §2

WRN helicase [4] = test: Intact mass spectrometry and peptide mapping of covalent modification; assay type: binding
Description: The intact WRN helicase has an observed mass of 67,573.1 Da (theoretical mass of 67,409.4 Da). The WRN helicase incubated with the compound of Example 1 has an observed mass of 68,164.5 (theoretical mass of 1:1 adduct 68,000 Da). The shift in the observed mass between intact WRN and WRN incubated with the compound of Example 1 is equivalent to the theorectical mass of the compound of Example 1 (592.2 Da). […] The mass spectrometry results, combined with the ATPase assay results established that covalently targeting Cys727 is and effective and tractable way to inhibit both the ATPase and helicase activities of WRN.

T3 sequence (Q14191 2-1235 C727A): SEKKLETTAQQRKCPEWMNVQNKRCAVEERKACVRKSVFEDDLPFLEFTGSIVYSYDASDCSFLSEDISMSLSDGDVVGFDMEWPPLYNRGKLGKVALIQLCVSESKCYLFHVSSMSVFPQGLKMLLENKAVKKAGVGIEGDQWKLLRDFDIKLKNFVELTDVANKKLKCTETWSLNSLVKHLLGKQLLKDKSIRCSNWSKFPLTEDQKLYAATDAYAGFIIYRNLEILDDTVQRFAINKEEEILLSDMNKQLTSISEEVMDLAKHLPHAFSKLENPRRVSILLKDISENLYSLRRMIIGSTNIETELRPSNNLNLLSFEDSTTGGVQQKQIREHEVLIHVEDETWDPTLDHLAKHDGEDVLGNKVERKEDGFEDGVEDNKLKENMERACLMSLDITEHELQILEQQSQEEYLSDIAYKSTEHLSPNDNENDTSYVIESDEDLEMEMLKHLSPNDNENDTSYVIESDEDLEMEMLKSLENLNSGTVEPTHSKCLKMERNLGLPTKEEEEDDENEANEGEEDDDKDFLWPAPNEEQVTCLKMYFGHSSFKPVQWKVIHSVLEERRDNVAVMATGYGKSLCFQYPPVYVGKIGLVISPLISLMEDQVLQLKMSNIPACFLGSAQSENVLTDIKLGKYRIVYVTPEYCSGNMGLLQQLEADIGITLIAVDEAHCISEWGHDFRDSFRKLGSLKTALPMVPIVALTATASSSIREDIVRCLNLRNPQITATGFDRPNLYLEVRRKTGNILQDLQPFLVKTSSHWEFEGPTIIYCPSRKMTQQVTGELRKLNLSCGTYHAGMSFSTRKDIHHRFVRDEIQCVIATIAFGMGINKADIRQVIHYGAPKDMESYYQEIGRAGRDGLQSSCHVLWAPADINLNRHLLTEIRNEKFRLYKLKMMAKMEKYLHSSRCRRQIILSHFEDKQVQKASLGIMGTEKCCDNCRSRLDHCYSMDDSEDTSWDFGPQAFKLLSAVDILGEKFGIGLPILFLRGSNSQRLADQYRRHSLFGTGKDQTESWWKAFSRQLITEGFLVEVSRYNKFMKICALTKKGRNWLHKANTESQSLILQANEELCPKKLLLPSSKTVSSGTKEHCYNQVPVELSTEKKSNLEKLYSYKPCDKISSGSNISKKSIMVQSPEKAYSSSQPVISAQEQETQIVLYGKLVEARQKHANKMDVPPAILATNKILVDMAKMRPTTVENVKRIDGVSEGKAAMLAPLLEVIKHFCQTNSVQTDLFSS
T2 sequence (Q14191 2-1235): as the sequence (Q14191 2-1235 C727A) above, with A726C counted along it
T4 sequence (Q14191 2-1235 C727S): as the sequence (Q14191 2-1235 C727A) above, with A726S counted along it
T1 sequence (Q14191 2-1235): as the sequence (Q14191 2-1235 C727A) above, with A726C counted along it

With C=CC(=O)Nc1ccccc1-c1c(CC)n(CC(=O)Nc2ccc(C(F)(F)F)cc2)c2nc(C3=CCOCC3)nn2c1=O [Example 1, N-(2-(2-(3,6-Dihydro-2H-pyran-4-yl)-5-ethyl-7-oxo-4-(2-oxo-2-((4-(trifluoromethyl)phenyl)amino)ethyl)-4,7-dihydro-[1,2,4]triazolo[1,5-a]pyrimidin-6-yl)phenyl)acrylamide] the pIC50 (WRN [1]) was over 7.00, the pIC50 (WRN [2]) was over 7.00 and the “time dependence of inhibition” value (WRN helicase [3]; FIG. 1) was “inhibits WRN helicase in a time dependent manner”. The pIC50 (WRN helicase [3]; preincubation 1 hour) was 7.62, the pIC50 (WRN helicase [3]; preincubation 2 hrs) was 7.92 and the pIC50 (WRN helicase [3]; preincubation 4 hrs) was 8.10. For the same compound, the pIC50 (WRN helicase [3]; without preincubation) was 6.35, the “fold shift relative to WT” value (WRN Cys727Ala; Cys727Ala vs WT, without preincubation) was 13 fold and the pIC50 (WRN Cys727Ala; Cys727Ala, without preincubation) was 5.24. For the same compound, the “effect of Cys 727 mutation on potency” value (WRN Cys727Ala; FIG. 2, Cys727Ala and Cys727Ser) was “reduces the potency”, the pIC50 (WRN Cys727Ser; Cys727Ser) was 4.41 and the “fold shift relative to WT” value (WRN Cys727Ser; Cys727Ser vs WT) was 86 fold. For the same compound, the “adduct formation with WRN helicase” value (WRN helicase [4]; intact mass spectrometry) was 1:1 adduct and the residue modified (WRN helicase [4]; peptide mapping analysis) was “Cys727 is the only residue to be modified”.
